Reference: US9237761B2, “Methods and diets for lowering glucose and/or IGF-1 levels” (priority 2013, dated 2016)

Experiments:
4T1 breast cancer = 4T1 breast cancer subcutaneous tumor progression with cisplatin; type: in vivo, BalB/C mice; details: three cycles, 12, 8, 8 mg/kg i.v. days 15, 33, 44
Experimental: Murine 4T1 breast cancer and GL26 glioma cells were maintained in DMEM (Invitrogen) supplemented with 10% fetal bovine serum (FBS) at 37° C. under 5% CO2. Cells in log phase growth were washed and suspended in PBS at 2×10^6 cells/mL and injected subcutaneously (s.c., 2×10^5 cells/mouse in 100 μL PBS) in the lower back region of the mouse. Tumor size was measured using a caliper. To mimic multi-cycle treatments in humans, mice were treated intravenously (i.v., lateral tail vein) with Cisplatin (Teva Parenteral Medicines Inc.) three times on days 15, 33 and 44 after tumor inoculation at 12, 8 and 8 mg/kg body weight, respectively. Mice were monitored daily and animals showing signs of severe stress, deteriorating health status or excess tumor load (2000 mm^3) were designated as moribund and euthanized.
The efficacy of STS in augmenting the treatment of various cancers is twofold: it protects against chemotherapy-induced toxicity to normal cells/tissues and sensitizes malignant cells to chemotherapeutic agents. […] To test whether a short-term intermittent 50% CR (ICR) diet could result in similar beneficial effects as the established fasting protocols, murine 4T1 breast cancer cells were implanted subcutaneously into female BalB/C mice and monitored the tumor progression. […]

[1] = 24 mg/kg i.v., mice fed ad lib AIN93G

Row | SMILES | tumor volume vs untreated mice (4T1 breast cancer) | survival by day 25 post injection [1]
1 | N.N.[Cl][Pt][Cl] [cisplatin, Cisplatin] | approximately half the size | –
2 | COc1cccc2c1C(=O)c1c(O)c3c(c(O)c1C2=O)C[C@@](O)(C(=O)CO)C[C@@H]3O[C@H]1C[C@H](N)[C@H](O)[C@H](C)O1 [DXR, Doxorubicin] | – | 16%
